{
  "source": "patent US10688131B2",
  "about": "“Peptides and scaffolds for use in immunotherapy against head and neck squamous cell carcinoma and other cancers” (Immatics Biotechnologies GmbH, priority 2016, dated 2020)",
  "key": {"CD8+ T cells": {"test_system": "CD8+ T cells", "assay": "In vitro T-cell priming assay with aAPCs loaded with peptide/MHC complexes and anti-CD28 antibody, pMHC multimer readout", "type": "cell-based, human", "conditions": "percentage of positive wells among evaluable, HLA-A*02 restricted peptides", "excerpt": "In order to obtain information regarding the immunogenicity of the TUMAPs of the present invention, the inventors performed investigations using an in vitro T-cell priming assay based on repeated stimulations of CD8+ T cells with artificial antigen presenting cells (aAPCs) loaded with peptide/MHC complexes and anti-CD28 antibody.\nIn order to perform in vitro stimulations by artificial antigen presenting cells loaded with peptide-MHC complex (pMHC) and anti-CD28 antibody, the inventors first isolated CD8+ T cells from fresh HLA-A*02 leukapheresis products via positive selection using CD8 microbeads (Miltenyi Biotech, Bergisch-Gladbach, Germany) of healthy donors obtained from the University clinics Mannheim, Germany, after informed consent.\nPBMCs and isolated CD8+ lymphocytes were incubated in T-cell medium (TCM) until use consisting of RPMI-Glutamax (Invitrogen, Karlsruhe, Germany) supplemented with 10% heat inactivated human AB serum (PAN-Biotech, Aidenbach, Germany), 100 U/ml Penicillin/100 μg/ml Streptomycin (Cambrex, Cologne, Germany), 1 mM sodium pyruvate (CC Pro, Oberdorla, Germany), 20 μg/ml Gentamycin (Cambrex). 2.5 ng/ml IL-7 (PromoCell, Heidelberg, Germany) and 10 U/ml IL-2 (Novartis Pharma, Nürnberg, Germany) were also added to the TCM at this step.\nGeneration of pMHC/anti-CD28 coated beads, T-cell stimulations and readout was performed in a highly defined in vitro system using four different pMHC molecules per stimulation condition and 8 different pMHC molecules per readout condition.\nThe purified co-stimulatory mouse IgG2a anti human CD28 Ab 9.3 (Jung et al., 1987) was chemically biotinylated using Sulfo-N-hydroxysuccinimidobiotin as recommended by the manufacturer (Perbio, Bonn, Germany). Beads used were 5.6 μm diameter streptavidin coated polystyrene particles (Bangs Laboratories, Illinois, USA).\npMHC used for positive and negative control stimulations were A*0201/MLA-001 (peptide […] (SEQ ID NO. 157) from modified Melan-A/MART-1) and A*0201/DDX5-001 ([…] from DDX5, SEQ ID NO. 158), respectively.\n800.000 beads/200 μl were coated in 96-well plates in the presence of 4×12.5 ng different biotin-pMHC, washed and 600 ng biotin anti-CD28 were added subsequently in a volume of 200 μl. Stimulations were initiated in 96-well plates by co-incubating 1×10^6 CD8+ T cells with 2×10^5 washed coated beads in 200 μl TCM supplemented with 5 ng/ml IL-12 (PromoCell) for 3 days at 37° C. Half of the medium was then exchanged by fresh TCM supplemented with 80 U/ml IL-2 and incubating was continued for 4 days at 37° C. This stimulation cycle was performed for a total of three times. For the pMHC multimer readout using 8 different pMHC molecules per condition, a two-dimensional combinatorial coding approach was used as previously described (Andersen et al., 2012) with minor modifications encompassing coupling to 5 different fluorochromes. Finally, multimeric analyses were performed by staining the cells with Live/dead near IR dye (Invitrogen, Karlsruhe, Germany), CD8-FITC antibody clone SK1 (BD, Heidelberg, Germany) and fluorescent pMHC multimers. For analysis, a BD LSRII SORP cytometer equipped with appropriate lasers and filters was used. Peptide specific cells were calculated as percentage of total CD8+ cells. Evaluation of multimeric analysis was done using the FlowJo software (Tree Star, Oregon, USA). In vitro priming of specific multimer+CD8+ lymphocytes was detected by comparing to negative control stimulations.\nExemplary flow cytometry results after TUMAP-specific multimer staining for 2 peptides of the invention are shown in FIGS. 3A and 3B together with corresponding negative controls. Additional exemplary flow cytometry results after TUMAP-specific multimer staining for 3 peptides of the invention are shown in FIGS. 4A-4C together with corresponding negative controls."}, "HLA-A*02:01": {"molecular_target": "HLA-A*02:01 (Homo sapiens, UniProt P04439, D140Y/D185E/D98H/E176V/E277Q/G131W/G231S/I119V/I121R/I166T/I218V/L300P/L318F/N151K/N90K/P208A/P217A/Q86G/Q94H/R138H/R169H/T345S)", "assay": "MHC binding assay: UV-ligand exchange with β2m ELISA", "conditions": "binding of HLA-class I restricted peptides to HLA-A*02:01", "excerpt": "Candidate peptides for T cell based therapies according to the present invention were further tested for their MHC binding capacity (affinity). The individual peptide-MHC complexes were produced by UV-ligand exchange, where a UV-sensitive peptide is cleaved upon UV-irradiation, and exchanged with the peptide of interest as analyzed. Only peptide candidates that can effectively bind and stabilize the peptide-receptive MHC molecules prevent dissociation of the MHC complexes. To determine the yield of the exchange reaction, an ELISA was performed based on the detection of the light chain (β2m) of stabilized MHC complexes. The assay was performed as generally described in Rodenko et al. (Rodenko et al., 2006).\n96 well MAXISorp plates (NUNC) were coated over night with 2 ug/ml streptavidin in PBS at room temperature, washed 4× and blocked for 1 h at 37° C. in 2% BSA containing blocking buffer. Refolded HLA-A*02:01/MLA-001 monomers served as standards, covering the range of 15-500 ng/ml. Peptide-MHC monomers of the UV-exchange reaction were diluted 100-fold in blocking buffer. Samples were incubated for 1 h at 37° C., washed four times, incubated with 2 ug/ml HRP conjugated anti-β2m for 1 h at 37° C., washed again and detected with TMB solution that is stopped with […]. Absorption was measured at 450 nm. Candidate peptides that show a high exchange yield (preferably higher than 50%, most preferred higher than 75%) are generally preferred for a generation and production of antibodies or fragments thereof, and/or T cell receptors or fragments thereof, as they show sufficient avidity to the MHC molecules and prevent dissociation of the MHC complexes."}},
  "data": [
    {"substance": "26 (TLVDENQSWYL; listed as Homo sapiens) [compound 26]", "values": [
      {"measurement": "Wells positive [%]", "setting": "CD8+ T cells", "value": "++ (20%-49% = ++)"},
      {"measurement": "Peptide exchange (MHC class I binding score, peptide exchange yield)", "setting": "HLA-A*02:01", "value": "+++ (>50 = +++)"}
    ]},
    {"substance": "17 (SIWPALTQV; listed as Homo sapiens) [compound 17]", "values": [
      {"measurement": "Wells positive [%]", "setting": "CD8+ T cells", "value": "++++ (>=70% = ++++)"},
      {"measurement": "Peptide exchange (MHC class I binding score, peptide exchange yield)", "setting": "HLA-A*02:01", "value": "++++ (>75% = ++++)"}
    ]},
    {"substance": "10 (TLWPATPPKA; listed as Homo sapiens) [compound 10]", "values": [
      {"measurement": "Wells positive [%]", "setting": "CD8+ T cells", "value": "+ (<20% = +)"},
      {"measurement": "Peptide exchange (MHC class I binding score, peptide exchange yield)", "setting": "HLA-A*02:01", "value": "+++ (>50 = +++)"}
    ]},
    {"substance": "13 (SLVSYLDKV; listed as Homo sapiens) [compound 13]", "values": [
      {"measurement": "Wells positive [%]", "setting": "CD8+ T cells", "value": "++ (20%-49% = ++)"},
      {"measurement": "Peptide exchange (MHC class I binding score, peptide exchange yield)", "setting": "HLA-A*02:01", "value": "++++ (>75% = ++++)"}
    ]},
    {"substance": "29 (RLLPDLDEV; listed as Homo sapiens) [compound 29]", "values": [
      {"measurement": "Wells positive [%]", "setting": "CD8+ T cells", "value": "++ (20%-49% = ++)"},
      {"measurement": "Peptide exchange (MHC class I binding score, peptide exchange yield)", "setting": "HLA-A*02:01", "value": "++++ (>75% = ++++)"}
    ]},
    {"substance": "8 (AQLNIGNVLPV; listed as Homo sapiens) [compound 8]", "values": [
      {"measurement": "Wells positive [%]", "setting": "CD8+ T cells", "value": "+ (<20% = +)"},
      {"measurement": "Peptide exchange (MHC class I binding score, peptide exchange yield)", "setting": "HLA-A*02:01", "value": "++++ (>75% = ++++)"}
    ]},
    {"substance": "3 (SLYGLGGSKRISI; listed as Homo sapiens) [compound 3]", "values": [
      {"measurement": "Wells positive [%]", "setting": "CD8+ T cells", "value": "+ (<20% = +)"},
      {"measurement": "Peptide exchange (MHC class I binding score, peptide exchange yield)", "setting": "HLA-A*02:01", "value": "+++ (>50 = +++)"}
    ]},
    {"substance": "30 (TLASLGYAVV; listed as Homo sapiens) [compound 30]", "values": [
      {"measurement": "Wells positive [%]", "setting": "CD8+ T cells", "value": "+++ (50%-69% = +++)"},
      {"measurement": "Peptide exchange (MHC class I binding score, peptide exchange yield)", "setting": "HLA-A*02:01", "value": "+++ (>50 = +++)"}
    ]},
    {"substance": "16 (ALKDSVQRA; listed as Homo sapiens) [compound 16]", "values": [
      {"measurement": "Wells positive [%]", "setting": "CD8+ T cells", "value": "+ (<20% = +)"},
      {"measurement": "Peptide exchange (MHC class I binding score, peptide exchange yield)", "setting": "HLA-A*02:01", "value": "+++ (>50 = +++)"}
    ]},
    {"substance": "20 (YLINEIDRIRA; listed as Homo sapiens) [compound 20]", "values": [
      {"measurement": "Wells positive [%]", "setting": "CD8+ T cells", "value": "+ (<20% = +)"},
      {"measurement": "Peptide exchange (MHC class I binding score, peptide exchange yield)", "setting": "HLA-A*02:01", "value": "++++ (>75% = ++++)"}
    ]},
    {"substance": "28 (AVDPVSGSLYV; listed as Homo sapiens) [compound 28]", "values": [
      {"measurement": "Wells positive [%]", "setting": "CD8+ T cells", "value": "+++ (50%-69% = +++)"},
      {"measurement": "Peptide exchange (MHC class I binding score, peptide exchange yield)", "setting": "HLA-A*02:01", "value": "++++ (>75% = ++++)"}
    ]},
    {"substance": "19 (ALAKLLPLL; listed as Homo sapiens) [compound 19]", "values": [
      {"measurement": "Wells positive [%]", "setting": "CD8+ T cells", "value": "++ (20%-49% = ++)"},
      {"measurement": "Peptide exchange (MHC class I binding score, peptide exchange yield)", "setting": "HLA-A*02:01", "value": "++++ (>75% = ++++)"}
    ]},
    {"substance": "11 (VLFSSPPVI; listed as Homo sapiens) [compound 11]", "values": [
      {"measurement": "Wells positive [%]", "setting": "CD8+ T cells", "value": "++ (20%-49% = ++)"},
      {"measurement": "Peptide exchange (MHC class I binding score, peptide exchange yield)", "setting": "HLA-A*02:01", "value": "++++ (>75% = ++++)"}
    ]},
    {"substance": "82 (VLDINDNPPV; listed as Homo sapiens) [compound 82]", "values": [
      {"measurement": "Wells positive [%]", "setting": "CD8+ T cells", "value": "+ (<20% = +)"},
      {"measurement": "Peptide exchange (MHC class I binding score, peptide exchange yield)", "setting": "HLA-A*02:01", "value": "+++ (>50 = +++)"}
    ]},
    {"substance": "18 (YLYPDLSRL; listed as Homo sapiens) [compound 18]", "values": [
      {"measurement": "Wells positive [%]", "setting": "CD8+ T cells", "value": "+ (<20% = +)"},
      {"measurement": "Peptide exchange (MHC class I binding score, peptide exchange yield)", "setting": "HLA-A*02:01", "value": "++++ (>75% = ++++)"}
    ]},
    {"substance": "1 (GLAGGFGGPGFPV; listed as Homo sapiens) [compound 1]", "values": [
      {"measurement": "Wells positive [%]", "setting": "CD8+ T cells", "value": "+ (<20% = +)"},
      {"measurement": "Peptide exchange (MHC class I binding score, peptide exchange yield)", "setting": "HLA-A*02:01", "value": "++++ (>75% = ++++)"}
    ]}
  ]
}
